The values that follow come from ChEMBL document CHEMBL5696442, “Discovery of type II inhibitors of TGFβ-activated kinase 1 (TAK1) and mitogen-activated protein kinase kinase kinase kinase 2 (MAP4K2)” (J Med Chem, 2015).

SMILES strings stand for the structures. Calls of active or inactive are those of the source. The rule behind the calls is not given here.

Experiment [1] concerns the target Calcium/calmodulin-dependent protein kinase type II subunit delta (Homo sapiens) (UniProt Q13557). The experiment is described as follows: Inhibition of CaMK2d Lys1 labeling site harbouring IPTGQEYAAKIINTK in human Huh-7 cell lysate at 1 uM by KiNativ Profiling analysis relative to control. The format is subcellular.
Experiment [2] deals with Serine/threonine-protein kinase Nek6 (Homo sapiens) (UniProt Q9HC98). As to the kind of experiment: Inhibition of NEK6 Lys2 labeling site harbouring DIKPANVFITATGVVK in human Huh-7 cell lysate at 1 uM by KiNativ Profiling analysis relative to control. It is filed as subcellular.
Sequence of Serine/threonine-protein kinase Nek6 (Homo sapiens) (Q9HC98 whole entry): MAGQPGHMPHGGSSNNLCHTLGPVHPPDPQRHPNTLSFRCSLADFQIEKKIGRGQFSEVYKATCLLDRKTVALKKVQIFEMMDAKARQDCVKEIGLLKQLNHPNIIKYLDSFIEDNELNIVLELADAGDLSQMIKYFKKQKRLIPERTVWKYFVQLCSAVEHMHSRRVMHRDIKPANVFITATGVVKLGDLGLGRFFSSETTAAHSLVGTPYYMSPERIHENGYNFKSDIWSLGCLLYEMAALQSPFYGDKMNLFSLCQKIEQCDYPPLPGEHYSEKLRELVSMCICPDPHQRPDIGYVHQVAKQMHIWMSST
Experiment [3] concerns Epidermal growth factor receptor (Homo sapiens), P00533 [G719S]. As to the kind of experiment: Inhibition of EGFR G719S mutant (unknown origin) at 1 uM by Ambit Kinomescan binding assay relative to control.
Sequence of Epidermal growth factor receptor (Homo sapiens), P00533 [G719S] (P00533 whole entry G719S): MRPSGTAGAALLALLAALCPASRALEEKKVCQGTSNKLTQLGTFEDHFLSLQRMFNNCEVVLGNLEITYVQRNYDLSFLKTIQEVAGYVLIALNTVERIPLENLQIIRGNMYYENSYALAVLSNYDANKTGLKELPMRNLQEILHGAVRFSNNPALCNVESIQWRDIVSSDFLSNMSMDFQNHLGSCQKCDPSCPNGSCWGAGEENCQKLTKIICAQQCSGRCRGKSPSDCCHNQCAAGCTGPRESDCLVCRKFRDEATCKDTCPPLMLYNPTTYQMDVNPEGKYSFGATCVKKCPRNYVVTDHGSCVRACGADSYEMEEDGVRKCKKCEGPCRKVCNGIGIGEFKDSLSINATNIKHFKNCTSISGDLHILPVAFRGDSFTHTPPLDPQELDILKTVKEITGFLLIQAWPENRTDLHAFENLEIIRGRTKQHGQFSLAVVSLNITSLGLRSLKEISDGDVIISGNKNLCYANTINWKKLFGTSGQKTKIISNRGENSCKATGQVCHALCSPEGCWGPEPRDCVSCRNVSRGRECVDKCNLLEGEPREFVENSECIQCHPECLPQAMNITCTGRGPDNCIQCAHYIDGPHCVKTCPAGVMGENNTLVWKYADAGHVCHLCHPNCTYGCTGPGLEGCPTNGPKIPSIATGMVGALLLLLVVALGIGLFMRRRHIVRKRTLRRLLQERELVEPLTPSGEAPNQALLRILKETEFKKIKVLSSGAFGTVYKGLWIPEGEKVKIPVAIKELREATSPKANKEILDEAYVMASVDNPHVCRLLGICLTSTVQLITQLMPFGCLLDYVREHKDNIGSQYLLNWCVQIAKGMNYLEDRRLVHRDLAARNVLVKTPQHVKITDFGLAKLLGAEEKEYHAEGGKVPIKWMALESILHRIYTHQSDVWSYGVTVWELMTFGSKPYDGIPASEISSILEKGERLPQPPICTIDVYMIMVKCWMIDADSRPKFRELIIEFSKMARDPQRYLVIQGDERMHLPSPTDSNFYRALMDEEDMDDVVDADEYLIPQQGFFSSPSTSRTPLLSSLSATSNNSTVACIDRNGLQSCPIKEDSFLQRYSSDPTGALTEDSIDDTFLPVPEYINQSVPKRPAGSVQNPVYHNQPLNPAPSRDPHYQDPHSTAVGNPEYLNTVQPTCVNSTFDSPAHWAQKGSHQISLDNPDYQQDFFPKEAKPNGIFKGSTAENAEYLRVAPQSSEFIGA
Experiment [4] addresses T1, Mitogen-activated protein kinase 13 (Homo sapiens) (UniProt O15264).
T1 sequence (whole entry): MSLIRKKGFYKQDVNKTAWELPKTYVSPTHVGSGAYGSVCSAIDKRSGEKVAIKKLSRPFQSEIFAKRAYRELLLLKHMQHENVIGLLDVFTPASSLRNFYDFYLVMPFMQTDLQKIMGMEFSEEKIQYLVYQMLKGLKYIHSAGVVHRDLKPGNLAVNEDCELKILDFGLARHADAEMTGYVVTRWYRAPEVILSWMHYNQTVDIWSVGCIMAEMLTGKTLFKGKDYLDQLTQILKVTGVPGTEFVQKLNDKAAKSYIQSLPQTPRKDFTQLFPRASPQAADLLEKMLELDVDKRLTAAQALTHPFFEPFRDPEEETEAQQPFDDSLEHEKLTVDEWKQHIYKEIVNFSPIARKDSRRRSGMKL
The experiment is described as follows: Inhibition of p38 delta (unknown origin) at 1 uM by Ambit Kinomescan binding assay relative to control.

Experiment [5] deals with Serine/threonine-protein kinase SIK3 (Homo sapiens) (UniProt Q9Y2K2). As to the kind of experiment: Inhibition of QSK (unknown origin) at 1 uM by Ambit Kinomescan binding assay relative to control.
Experiment [6] addresses Ribosomal protein S6 kinase alpha-4 (Homo sapiens) (UniProt O75676). As to the kind of experiment: Inhibition of C-terminal RPS6KA4 kinase domain 2 (unknown origin) at 1 uM by Ambit Kinomescan binding assay relative to control.
The target in experiment [7] is Dual specificity mitogen-activated protein kinase kinase 1 (Homo sapiens) (UniProt Q02750). As to the kind of experiment: Inhibition of MAP2K1 Lys2 labeling site harbouring IMHRDVKPSNILVNSR in human A-375 cells at 5 uM by KiNativ Profiling analysis relative to control. It is filed as cell-based.
Sequence of Dual specificity mitogen-activated protein kinase kinase 1 (Homo sapiens) (Q02750 whole entry): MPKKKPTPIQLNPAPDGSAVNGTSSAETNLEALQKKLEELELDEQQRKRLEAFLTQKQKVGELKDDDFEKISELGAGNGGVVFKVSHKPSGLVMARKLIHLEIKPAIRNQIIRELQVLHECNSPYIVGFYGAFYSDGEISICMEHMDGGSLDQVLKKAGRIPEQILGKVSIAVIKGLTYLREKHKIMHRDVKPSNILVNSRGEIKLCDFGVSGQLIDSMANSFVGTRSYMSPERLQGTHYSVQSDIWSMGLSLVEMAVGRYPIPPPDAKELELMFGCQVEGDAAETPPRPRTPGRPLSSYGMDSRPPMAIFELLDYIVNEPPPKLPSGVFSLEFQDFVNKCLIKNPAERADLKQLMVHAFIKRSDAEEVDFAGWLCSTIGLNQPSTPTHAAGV
The target in experiment [8] is Serine/threonine-protein kinase 4 (Homo sapiens) (UniProt Q13043). The experiment is described as follows: Inhibition of MST1 (unknown origin) at 1 uM by Ambit Kinomescan binding assay relative to control.
Sequence of Serine/threonine-protein kinase 4 (Homo sapiens) (Q13043 whole entry, looked up): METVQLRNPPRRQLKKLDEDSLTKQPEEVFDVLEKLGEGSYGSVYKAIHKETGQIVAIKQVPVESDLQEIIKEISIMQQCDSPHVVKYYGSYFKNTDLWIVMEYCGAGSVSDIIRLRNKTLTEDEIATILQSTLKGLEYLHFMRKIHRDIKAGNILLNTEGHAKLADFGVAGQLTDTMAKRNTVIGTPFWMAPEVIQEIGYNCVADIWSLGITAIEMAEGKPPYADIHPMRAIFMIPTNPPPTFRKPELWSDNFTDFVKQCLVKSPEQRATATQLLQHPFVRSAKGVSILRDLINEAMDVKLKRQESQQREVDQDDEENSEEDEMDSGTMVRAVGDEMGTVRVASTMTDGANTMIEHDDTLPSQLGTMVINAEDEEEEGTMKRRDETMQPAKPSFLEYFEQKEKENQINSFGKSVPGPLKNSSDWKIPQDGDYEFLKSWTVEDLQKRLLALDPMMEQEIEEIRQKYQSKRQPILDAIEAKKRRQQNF
Experiment [9] deals with Receptor-type tyrosine-protein kinase FLT3 (Homo sapiens), P36888 [N841I]. As to the kind of experiment: Inhibition of FLT3 N841I mutant (unknown origin) at 1 uM by Ambit Kinomescan binding assay relative to control; values are per cent of control.
Experiment [10] concerns Tyrosine-protein kinase ABL1 (Homo sapiens), P00519 [M351T]. The experiment is described as follows: Inhibition of ABL1 M351T mutant (unknown origin) at 10 uM by Ambit Kinomescan binding assay relative to control.
Experiment [11] has as its system Mast/stem cell growth factor receptor Kit (Homo sapiens), P10721 [V559D,V654A]. As to the kind of experiment: Inhibition of KIT V559D/V654A double mutant (unknown origin) at 10 uM by Ambit Kinomescan binding assay relative to control.
Experiment [12] concerns the target T2, Inhibitor of nuclear factor kappa-B kinase subunit alpha (Homo sapiens) (UniProt O15111).
T2 sequence (whole entry): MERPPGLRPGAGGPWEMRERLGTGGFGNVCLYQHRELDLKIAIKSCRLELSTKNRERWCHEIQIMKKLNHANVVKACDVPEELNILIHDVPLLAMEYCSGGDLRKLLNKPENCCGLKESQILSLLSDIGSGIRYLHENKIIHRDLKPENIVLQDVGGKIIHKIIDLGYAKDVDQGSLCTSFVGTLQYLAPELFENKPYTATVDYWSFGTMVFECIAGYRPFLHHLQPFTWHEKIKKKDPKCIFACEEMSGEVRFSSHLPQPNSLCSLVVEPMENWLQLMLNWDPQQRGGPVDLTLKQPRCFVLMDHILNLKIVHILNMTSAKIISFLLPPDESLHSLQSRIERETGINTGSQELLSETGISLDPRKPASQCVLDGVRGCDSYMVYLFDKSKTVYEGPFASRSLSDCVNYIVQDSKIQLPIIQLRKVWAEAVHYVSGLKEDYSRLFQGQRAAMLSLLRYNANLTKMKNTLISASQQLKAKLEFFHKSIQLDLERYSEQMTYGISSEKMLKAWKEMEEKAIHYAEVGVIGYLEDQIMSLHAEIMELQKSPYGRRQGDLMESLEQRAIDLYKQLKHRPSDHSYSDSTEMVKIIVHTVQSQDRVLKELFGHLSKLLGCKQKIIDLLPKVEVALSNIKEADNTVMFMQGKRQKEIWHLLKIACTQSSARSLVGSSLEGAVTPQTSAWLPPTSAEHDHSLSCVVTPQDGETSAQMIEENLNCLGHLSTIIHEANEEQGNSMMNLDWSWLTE
As to the kind of experiment: Inhibition of IKKa Lys2 labeling site in human A-375 cells at 5 uM by KiNativ Profiling analysis relative to control. The format is cell-based.

Experiment [13] in a line: Inhibition of MARK2/3 K2 labeling site in human Huh-7 cells at 10 uM by KiNativ Profiling analysis relative to control. Particulars: condition cancer.
Experiment [14] concerns the target Ribosomal protein S6 kinase alpha-3 (Homo sapiens) (UniProt P51812). As to the kind of experiment: Inhibition of RSK2 Domain 2 K1 labeling site in human Huh-7 cells at 10 uM by KiNativ Profiling analysis relative to control. The format is cell-based.

Sequence of Ribosomal protein S6 kinase alpha-4 (Homo sapiens) (O75676 whole entry, looked up, the tested form may be a part): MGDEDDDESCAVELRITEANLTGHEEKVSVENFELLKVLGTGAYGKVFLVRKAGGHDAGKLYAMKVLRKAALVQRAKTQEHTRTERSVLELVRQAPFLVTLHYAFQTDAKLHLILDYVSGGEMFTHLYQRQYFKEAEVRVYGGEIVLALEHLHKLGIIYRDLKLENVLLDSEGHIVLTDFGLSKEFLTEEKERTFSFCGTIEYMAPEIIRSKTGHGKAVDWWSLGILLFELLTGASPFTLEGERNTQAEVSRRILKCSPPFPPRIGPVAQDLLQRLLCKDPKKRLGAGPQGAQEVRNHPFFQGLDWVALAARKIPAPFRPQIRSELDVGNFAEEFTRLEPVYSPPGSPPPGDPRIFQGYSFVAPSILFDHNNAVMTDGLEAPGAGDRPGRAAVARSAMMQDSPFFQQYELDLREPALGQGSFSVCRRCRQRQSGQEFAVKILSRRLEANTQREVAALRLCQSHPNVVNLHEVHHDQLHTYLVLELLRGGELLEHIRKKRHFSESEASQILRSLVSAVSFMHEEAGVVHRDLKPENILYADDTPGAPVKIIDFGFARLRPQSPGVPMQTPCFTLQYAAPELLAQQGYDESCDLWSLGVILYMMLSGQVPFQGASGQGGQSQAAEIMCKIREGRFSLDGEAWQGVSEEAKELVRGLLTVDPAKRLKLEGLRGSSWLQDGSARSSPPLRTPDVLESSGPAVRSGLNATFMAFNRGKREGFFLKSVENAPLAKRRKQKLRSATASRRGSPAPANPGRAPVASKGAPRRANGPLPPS
Sequence of Ribosomal protein S6 kinase alpha-3 (Homo sapiens) (P51812 whole entry, the tested form may be a part): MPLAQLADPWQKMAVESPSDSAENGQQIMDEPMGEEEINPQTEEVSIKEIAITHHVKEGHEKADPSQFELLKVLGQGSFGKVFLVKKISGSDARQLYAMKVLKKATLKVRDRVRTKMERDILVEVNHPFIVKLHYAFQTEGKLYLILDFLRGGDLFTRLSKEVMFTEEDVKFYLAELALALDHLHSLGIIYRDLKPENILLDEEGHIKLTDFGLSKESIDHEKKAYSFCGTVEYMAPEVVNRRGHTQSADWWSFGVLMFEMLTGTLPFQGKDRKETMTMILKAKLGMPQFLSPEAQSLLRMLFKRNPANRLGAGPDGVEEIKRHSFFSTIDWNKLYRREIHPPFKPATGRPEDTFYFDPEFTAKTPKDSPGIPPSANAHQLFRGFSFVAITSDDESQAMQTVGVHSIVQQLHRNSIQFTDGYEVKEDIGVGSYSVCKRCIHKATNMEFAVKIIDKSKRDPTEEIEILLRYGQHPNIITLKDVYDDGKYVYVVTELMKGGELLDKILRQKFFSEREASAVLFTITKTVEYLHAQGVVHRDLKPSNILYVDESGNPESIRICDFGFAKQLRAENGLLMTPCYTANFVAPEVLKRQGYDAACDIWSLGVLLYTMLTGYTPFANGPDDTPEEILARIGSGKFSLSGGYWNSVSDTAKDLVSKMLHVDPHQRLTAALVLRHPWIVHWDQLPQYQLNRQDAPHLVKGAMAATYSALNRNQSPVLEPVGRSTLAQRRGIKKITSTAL
Sequence of Calcium/calmodulin-dependent protein kinase type II subunit delta (Homo sapiens) (Q13557 whole entry): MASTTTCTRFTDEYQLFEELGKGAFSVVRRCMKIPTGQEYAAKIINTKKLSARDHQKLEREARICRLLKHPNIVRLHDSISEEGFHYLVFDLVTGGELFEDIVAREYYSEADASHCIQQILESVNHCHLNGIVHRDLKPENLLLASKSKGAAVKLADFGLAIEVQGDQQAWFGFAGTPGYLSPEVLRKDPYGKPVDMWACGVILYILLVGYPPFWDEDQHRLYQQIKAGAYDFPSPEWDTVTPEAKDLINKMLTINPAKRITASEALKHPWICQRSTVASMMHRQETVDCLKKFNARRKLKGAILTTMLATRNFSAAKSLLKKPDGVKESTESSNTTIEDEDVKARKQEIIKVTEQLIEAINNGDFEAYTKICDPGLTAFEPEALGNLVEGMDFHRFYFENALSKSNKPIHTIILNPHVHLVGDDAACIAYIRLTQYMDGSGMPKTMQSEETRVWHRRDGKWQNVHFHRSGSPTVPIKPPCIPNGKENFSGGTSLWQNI

On to `CNc1cc(Oc2cc(C(=O)Nc3cc(N4CCN(C)CC4)cc(C(F)(F)F)c3)ccc2C)ncn1`, for which the inhibition is 1.4% in experiment [1] and -5% in [2].

With `CCN1CCN(Cc2ccc(NC(=O)c3ccc(C)c(/C=C/c4cnc5[nH]ccc5c4OC)c3)cc2C(F)(F)F)CC1`, the inhibition in [3] was 0.9%; in experiment [4] it was 67%; in [5], 100%; in [6], 73%; in [7], 34.7%; in experiment [8], 72%. This compound also showed a residual activity in experiment [9] of 2.3%.

In the case of `CCN1CCN(Cc2ccc(NC(=O)c3ccc(C)c(Oc4ccnc5[nH]ccc45)c3)cc2C(F)(F)F)CC1`, the inhibition in experiment [10] is 0.35%; in experiment [11], 2.7%; in experiment [12] it was 72.4%. Also, the inhibition at 10 µM in [13] was found to be 11.8%. In addition, the inhibition result in experiment [14] was “inactive”.

One may read the inhibition as the relative decrease from the control value, in per cent. Usually residual activity stands for the signal under treatment as a percentage of the control signal. Higher therefore signals a small loss of activity.
